According to US10577373B2, “TYK2 inhibitors and uses thereof” (Nimbus Lakshmi, Inc., priority 2017, dated 2020):
Where two headings read alike, the source gives them in different places.

How the values were obtained:
[1] = system: GM-CSF induced STAT5 phosphorylation mediated by the JAK2/JAK2 homdimeric complex; experiment: GM-CSF Induced pSTAT5 in Human PBMC
From the text: Human PBMC are isolated from buffy coat and are stored frozen for assays as needed.

[2] = system: IL-12 induced STAT4 phophorylation mediated by Tyk2/JAK2 (heterodimeric complex); experiment: IL-12 Induced pSTAT4 in Human PBMC; assay type: cell-based; details: 1.7 ng/mL IL-12
From the text: The IL-12 Induced pSTAT4 assay evaluates the inhibition of IL-12 induced STAT4 phophorylation mediated by Tyk2/JAK2 (heterodimeric complex).

[3] = Homo sapiens, PBMC, 20 min, read-out: PBMC_GMCSF_pSTAT5 IC50, human PBMC, GM-CSF 5 ng/mL for 20 minutes, pSTAT5
[4] = read-out: PBMC_GMCSF_pSTAT5 IC50, human PBMC, GM-CSF 5 ng/mL for 20 minutes, pSTAT5

| Structure (SMILES) | IC50 [1, 3] [µM] | IC50 [2] [nM] | IC50 [1, 4] [µM] | IC50 ([1]; Homo sapiens, PBMC, 20 min, read-out: PBMC_GMCSF_pSTAT5 IC50) [µM] |
| --- | --- | --- | --- | --- |
| CNc1cc(Nc2cccn(-c3ncc(C)s3)c2=O)nc2c(C(=O)NC3CC3)cnn12 [I-261, N-cyclopropyl-7-(methylamino)-5-((1-(5-methylthiazol-2-yl)-2-oxo-1,2-dihydropyridin-3-yl)amino)pyrazolo[1,5-a]pyrimidine-3-carboxamide] | > 2.5 | < 100 |  |  |
| CNc1cc(Nc2cccn(C3CCCCC3)c2=O)nc2c(C(=O)N[C@@H]3CC[C@H]3O)cnn12 [I-1002] |  | < 100 | > 50 |  |
| CNc1cc(Nc2cccn(-c3ncccc3F)c2=O)nc2c(C(=O)NCC(C)(C)CO)cnn12 [I-510] | > 50 | < 100 |  |  |
| CNc1cc(Nc2cccn([C@H]3CC[C@](C)(OC)CC3)c2=O)nc2c(C(=O)N[C@@H]3CC[C@H]3OC)cnn12 [I-959] | > 50 | < 100 |  |  |
| CNc1cc(Nc2cc(Cl)cn([C@@H]3CCCOC3)c2=O)nc2c(C(=O)NC3CC3)cnn12 [I-783] | > 50 | < 100 |  |  |
| CNc1cc(Nc2cccn(C3CC4(COC4)C3)c2=O)nc2c(C(=O)N[C@@H]3C[C@@H]3F)cnn12 [I-551, N-((1R,2S)-2-fluorocyclopropyl)-7-(methylamino)-5-((2-oxo-1-(2-oxaspiro[3.3]heptan-6-yl)-1,2-dihydropyridin-3-yl)amino)pyrazolo[1,5-a]pyrimidine-3-carboxamide] | > 2.5 | < 100 |  |  |
| CNc1cc(Nc2cccn([C@H]3[C@@H]4COC[C@@H]43)c2=O)nc2c(C(=O)N[C@@H]3C[C@@H]3F)cnn12 [I-811] | > 50 | < 100 |  |  |
| CNc1cc(Nc2cccc(N3CCOC3=O)n2)nc2c(C(=O)NC3CCC3)cnn12 [I-105] | > 12.5 | < 100 |  |  |
| CNc1cc(Nc2cc(F)cn(-c3cc(C)n(C)n3)c2=O)nc2c(C(=O)N[C@H]3C[C@H]3F)cnn12 [I-385] | > 2.5 | < 100 |  |  |
| CNc1cc(Nc2cccn(-c3ccn(C)n3)c2=O)nc2c(C(=O)NC3CC3)cnn12 [I-294] | > 12.5 | < 100 |  |  |
| [2H]C([2H])([2H])Oc1ncccc1Nc1cc(NC)n2ncc(C(=O)NC3CCC3)c2n1 [I-176] | > 50 | < 100 |  |  |
| CNc1cc(Nc2cc(Cl)cn(C3CCCN(C)C3)c2=O)nc2c(C(=O)N[C@@H]3C[C@@H]3F)cnn12 (stereo partly shown) [I-759] | > 50 | < 100 |  |  |
| CNc1cc(Nc2cccn(-c3cnc(C(=O)N(C)C)cn3)c2=O)nc2c(C(=O)NC3CC3)cnn12 [I-127, N-cyclopropyl-5-((1-(5-(dimethylcarbamoyl)pyrazin-2-yl)-2-oxo-1,2-dihydropyridin-3-yl)amino)-7-(methylamino)pyrazolo[1,5-a]pyrimidine-3-carboxamide] | > 12.5 | < 100 |  |  |
| CNc1cc(Nc2cccnc2OC(C)C)nc2c(C(=O)NC3CCC3)cnn12 [I-145] | > 50 | 100 to 500 |  |  |
| CNc1cc(Nc2cccnc2OC2CC2)nc2c(C(=O)NC3CCC3O)cnn12 (stereo in doubt) [I-366, 5-((2-cyclopropoxypyridin-3-yl)amino)-N-((1R,2R)-2-hydroxycyclobutyl)-7-(methylamino)pyrazolo[1,5-a]pyrimidine-3-carboxamide] | > 50 | < 100 |  |  |
| CNc1cc(Nc2cc(Cl)cn(C3CCN(C)CC3)c2=O)nc2c(C(=O)N[C@@H]3C[C@@H]3F)cnn12 [I-789] | > 12.5 | < 100 |  |  |
| CNc1cc(Nc2cccn(-c3ccc(F)cn3)c2=O)nc2c(C(=O)NC3CCC3)cnn12 [I-238] | > 50 | < 100 |  |  |
| CNc1cc(Nc2cccc(N3CCC34COC4)n2)nc2c(C(=O)N[C@H]3C[C@H]3F)cnn12 [I-709] | > 50 | < 100 |  |  |
| CNc1cc(-c2cn(C(C)C)c3ncccc23)nc2c(C(=O)N[C@@H]3CC[C@H]3O)cnn12 (stereo in doubt) [I-586, N-((1R,2R)-2-hydroxycyclobutyl)-5-(1-isopropyl-1H-pyrrolo[2,3-b]pyridin-3-yl)-7-(methylamino)pyrazolo[1,5-a]pyrimidine-3-carboxamide] |  | < 100 | > 50 |  |
| CNc1cc(Nc2cccc(N3CCOC3=O)n2)nc2c(C(=O)N[C@H]3C[C@H]3F)cnn12 [I-236] | > 2.5 | < 100 |  |  |
| CNc1cc(Nc2cccn([C@@H]3CCC[C@H](OC)C3)c2=O)nc2c(C(=O)N[C@@H]3CC[C@H]3OC)cnn12 [I-995] | > 50 | < 100 |  |  |

| Structure (SMILES) | IC50 [1, 3] [µM] | IC50 [2] [nM] | IC50 [1, 4] [µM] | IC50 ([1]; Homo sapiens, PBMC, 20 min, read-out: PBMC_GMCSF_pSTAT5 IC50) [µM] |
| --- | --- | --- | --- | --- |
| CNc1cc(Nc2cccn(-c3cc(C)nn3C)c2=O)nc2c(C(=O)NC3CCC3)cnn12 [I-342] | > 12.5 | < 100 |  |  |
| CNc1cc(Nc2cccc(-c3cnn(C)c3)c2Cl)nc2c(C(N)=O)cnn12 [I-17] | > 2.5 | < 100 |  |  |
| CNc1cc(Nc2cccn(-c3cc(C)n(C)n3)c2=O)nc2c(C(=O)NC3CCC3)cnn12 [I-136] | > 2.5 | < 100 |  |  |
| CNc1cc(Nc2cccnc2OC2CC2)nc2c(C(=O)N[C@H]3C[C@H]3F)cnn12 [I-217] | > 50 | < 100 |  |  |
| [2H]C([2H])([2H])Oc1ncccc1Nc1cc(NC)n2ncc(C(=O)N[C@H]3C[C@H]3F)c2n1 [I-177] | > 12.5 | < 100 |  |  |
| CNc1cc(Nc2cc(F)cnc2OC)nc2c(C(=O)NCC(C)(C)CO)cnn12 [I-283] | > 50 | < 100 |  |  |
| CNc1cc(Nc2cccnc2OC(C)C)nc2c(C(=O)N[C@H]3C[C@H]3F)cnn12 [I-147] | > 50 | < 100 |  |  |
| CNc1cc(Nc2cccnc2OC2CC2)nc2c(C(=O)NC3CCC3)cnn12 [I-216] | > 12.5 | < 100 |  |  |
| [2H]C([2H])([2H])Oc1ncc(F)cc1Nc1cc(NC)n2ncc(C(=O)NC3CCC3)c2n1 [I-288] | > 2.5 | < 100 |  |  |
| CNc1cc(Nc2cccnc2OC)nc2c(C(=O)NCC3(CO)CC3)cnn12 [I-425] |  | < 100 |  | > 50 |
| CNc1cc(Nc2cccnc2OC(F)F)nc2c(C(=O)NC3CCC3)cnn12 [I-151] | > 50 | < 100 |  |  |
| CNc1cc(Nc2cc(Cl)cn([C@@H]3CCCN(C)C3)c2=O)nc2c(C(=O)NC3CC3)cnn12 [I-819] | > 50 | < 100 |  |  |
| CNc1cc(Nc2cccnc2OC)nc2c(C(=O)NC3CCC3)cnn12 [I-4] | > 12.5 | < 100 |  |  |
| CNc1cc(Nc2cccn(-c3nc(C)c(C)s3)c2=O)nc2c(C(=O)N[C@H]3C[C@H]3F)cnn12 [I-292] | > 2.5 | < 100 |  |  |
| CNc1cc(Nc2cc(Cl)cn(-c3cnc(C(=O)N(C)C)cn3)c2=O)nc2c(C(=O)NC3CC3)cnn12 [I-318] | > 2.5 | < 100 |  |  |
| CNc1cc(Nc2cccnc2OC)nc2c(C(=O)N[C@H]3CC[C@@H]3O)cnn12 [I-395] |  | < 100 | > 12.5 |  |
| CNc1cc(Nc2cc(F)cn(-c3cc(C)n(C)n3)c2=O)nc2c(C(=O)NC3CC3)cnn12 [I-384] | > 0.3 | < 100 |  |  |
| CNc1cc(Nc2cccn([C@H]3CC[C@@H](N4CCOCC4)CC3)c2=O)nc2c(C(=O)NC3CCC3)cnn12 [I-182] | > 2.5 | < 100 |  |  |
| CNc1cc(Nc2cc(Cl)cn(-c3ccn(C)n3)c2=O)nc2c(C(=O)NC3CC3)cnn12 [I-310] | > 2.5 | < 100 |  |  |
| CNc1cc(Nc2cccn(-c3cnc(C(=O)N(C)C)cn3)c2=O)nc2c(C(=O)N[C@H]3C[C@H]3F)cnn12 [I-126] | > 50 | < 100 |  |  |
